From PMC11819603, “Development of a reliable, sensitive, and convenient assay for the discovery of new eIF5A hypusination inhibitors” (PLOS ONE, 2025)
Each block holds one compound with its values, some of them ahead of it.

Key:
Type in all cases: biochemical
[1] = biological target: T1, DHPS (Homo sapiens, UniProt P49366); test: Hyp'Assay: cell-free eIF5A hypusination in 96-well plates (recombinant eIF5A, DHPS, DOHH; anti-hypusine antibody Hpu24), substance present in the DHPS step; details: for hypusination signal, Mean (quantification from Figure 3B): control 100,0
T1 construct: host or cells: E. coli BL21 (DE3)
T1 sequence (P49366 1-369): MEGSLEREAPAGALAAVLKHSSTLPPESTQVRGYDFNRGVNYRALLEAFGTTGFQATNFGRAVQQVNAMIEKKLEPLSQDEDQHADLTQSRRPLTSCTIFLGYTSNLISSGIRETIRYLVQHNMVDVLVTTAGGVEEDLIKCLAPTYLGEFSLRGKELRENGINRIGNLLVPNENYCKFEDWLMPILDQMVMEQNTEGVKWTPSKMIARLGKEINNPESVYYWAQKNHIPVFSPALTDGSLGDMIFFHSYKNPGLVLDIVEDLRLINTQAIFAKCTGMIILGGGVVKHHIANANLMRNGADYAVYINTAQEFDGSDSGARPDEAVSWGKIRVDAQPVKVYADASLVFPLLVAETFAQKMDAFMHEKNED
Protocol: The principle of the Hyp’Assay (Fig 2A) is to perform eIF5A hypusination reaction in 96-well plates, allow eIF5A to adsorb to the plate, incubate with an anti-hypusine antibody and a secondary antibody conjugated to HRP and reveal hypusination using TMB as a substrate.
(§1) […] Then 10 μL containing 1 μg of DOHH with 10 μM Fe^2+ (H8FeN2O8S2^. 6H2O) were added. After 1 h proteins were analyzed by Western Blot using antibodies toward DHPS, DOHH, Hypusine, and eIF5A.
(§2) The cell-free reaction described in 4.4 is performed in triplicates in a 96-wells plate (MaxiSorp, ThermoFisher) in the presence of 3 μg of eIF5A, 2 μg of DHPS, and 2 μg of DOHH by well. The reaction product, hypusinated eIF5A, is adsorbed onto the plate overnight at 4°C. The plate is washed (100 μL/well) thrice with PBS-T (PBS– 0.05% Tween20), then saturated with 1% non-fat dry milk in PBS-T for 2 h at room temperature. The plate is washed thrice with PBS-T and incubated overnight at 4°C with the anti-hypusine antibody (1:2000 in saturation buffer, 50 μL/well). The next day and after 5 washes with PBS-T, HRP-coupled anti-rabbit secondary antibody diluted 1:5000 in saturation buffer (50 μL/well) is added for 2 h at room temperature.

[2] = biological target: T2, DOHH (Homo sapiens, UniProt Q9BU89); test: Hyp'Assay, substance added after the deoxyhypusination reaction (DOHH step); details: for hypusination signal, Mean (quantification from Figure 3C): control 100,0
T2 construct: pelB leader (N); host or cells: E. coli BL21 (DE3)
T2 sequence (Q9BU89 1-302): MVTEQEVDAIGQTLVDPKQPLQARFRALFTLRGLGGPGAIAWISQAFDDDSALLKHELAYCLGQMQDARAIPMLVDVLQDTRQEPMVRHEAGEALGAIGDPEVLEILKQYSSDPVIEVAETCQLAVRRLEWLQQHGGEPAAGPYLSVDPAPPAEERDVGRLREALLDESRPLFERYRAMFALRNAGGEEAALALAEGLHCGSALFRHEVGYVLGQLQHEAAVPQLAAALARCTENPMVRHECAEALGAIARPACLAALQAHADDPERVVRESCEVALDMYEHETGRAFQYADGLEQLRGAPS
Protocol: We then tested the ability of DOHH inhibitors to inhibit eIF5A hypusination using the Hyp’Assay. During the Hyp’Assay, DOHH inhibitors were added after the deoxyhypusination reaction.
To address this issue, we compared the ability of GC7 to inhibit DHPS or DOHH by adding GC7 during the first step of the Hyp’Assay; when DHPS mediates the deoxyhypusination reaction (Fig 2A), or only during the second step, when DOHH hydroxylate deoxyhypusinated eIF5A. […] When finding new hypusination inhibitors adding them during the first or the second step of the Hyp’Assay will allow us to determine if the inhibition affects DHPS or DOHH. Another way to discriminate between DHPS or DOHH inhibitors would be to use Hpu98, an antibody that recognized both hypusinated and deoxyhypusinated eIF5A, instead of Hpu24, which is specific for hypusinated eIF5A [18]. […] We performed a new Hyp’Assay by omitting DOHH in the reaction mix and using the Hpu98 antibody. First, we performed a dose response experiment with spermidine at pH: 8.0 and 9.0 (Fig 3E). […] We also tested the ability of GC7 (Fig 3F) and CPX or EDTA (Fig 3G) to inhibit DHPS.
as §1, §2

[3] = biological target: T1, DHPS; test: Hyp'Assay without DOHH: deoxyhypusination of eIF5A revealed with Hpu98 antibody; details: 5 μM spermidine; CTRL 100,0; inhibitor concentration not given
Description: To address this issue, we compared the ability of GC7 to inhibit DHPS or DOHH by adding GC7 during the first step of the Hyp’Assay; when DHPS mediates the deoxyhypusination reaction (Fig 2A), or only during the second step, when DOHH hydroxylate deoxyhypusinated eIF5A. […] This confirms the specificity of GC7 towards DHPS. When finding new hypusination inhibitors adding them during the first or the second step of the Hyp’Assay will allow us to determine if the inhibition affects DHPS or DOHH. Another way to discriminate between DHPS or DOHH inhibitors would be to use Hpu98, an antibody that recognized both hypusinated and deoxyhypusinated eIF5A, instead of Hpu24, which is specific for hypusinated eIF5A [18]. […] We performed a new Hyp’Assay by omitting DOHH in the reaction mix and using the Hpu98 antibody. First, we performed a dose response experiment with spermidine at pH: 8.0 and 9.0 (Fig 3E). The Hyp’Assay allows the detection of deoxyhypusinated eIF5A in a spermidine-dependent manner. Under these conditions, deoxyhypusination was equally efficient at both pH tested. […] We also tested the ability of GC7 (Fig 3F) and CPX or EDTA (Fig 3G) to inhibit DHPS. […] This provided us with another method to distinguish between DHPS and DOHH inhibitors.
as §2

[4] = concentration 1 (no unit on page; Fig 3C dose-response 0 to 100 μM)
[5] = concentration 10 (no unit on page; Fig 3C dose-response 0 to 100 μM)
[6] = concentration 100 (no unit on page; Fig 3C dose-response 0 to 100 μM)

Compound: CCNCCCNCCCNCCCNCC [BENSPM, N1,N11-diethylnorspermine]
decrease in hypusination ([1]; at 100 μM): 12% | inhibition of hypusination ([1]; at 1 mM): 43% | hypusination signal, Mean (quantification from Figure 3B) ([1]; concentration 1 (no unit on page; Fig 3B dose-response 0 to 1 mM)): 97,3 | hypusination signal, Mean (quantification from Figure 3B) ([1]; concentration 10 (no unit on page; Fig 3B dose-response 0 to 1 mM)): 101,9 | hypusination signal, Mean (quantification from Figure 3B) ([1]; concentration 100 (no unit on page; Fig 3B dose-response 0 to 1 mM)): 88,5 | hypusination signal, Mean (quantification from Figure 3B) ([1]; concentration 1000 (no unit on page; Fig 3B dose-response 0 to 1 mM)): 42,9

Compound: Cc1cc(C2CCCCC2)n(O)c(=O)c1 [CPX, ciclopirox]
hypusination signal, Mean (quantification from Figure 3C) [2, 4]: 97,78 | hypusination signal, Mean (quantification from Figure 3C) [2, 5]: 85,18 | hypusination signal, Mean (quantification from Figure 3C) [2, 6]: 55,02 | maximal inhibition ([2]; dose-response 0 to 100 μM): 50% | Relative deoxyhypusination of eIF5A, Mean (quantification from Figure 3F, 3G) [3]: 101,2 a.u

hypusination signal, Mean (quantification from Figure 3C) [2, 4]: 28,29 | hypusination signal, Mean (quantification from Figure 3C) [2, 5]: 58,42 | hypusination signal, Mean (quantification from Figure 3C) [2, 6]: 34,21
Compound: CC(=O)N(O)CCCCCNC(=O)CCC(=O)N(O)CCCCCNC(=O)CCC(=O)N(O)CCCCCN [DFX, deferoxamine]

Compound: C[S+](C)[O-] [DMSO]
inhibition of hypusination ([1]; 10% DMSO of the total reaction mixture): 33% | effect on hypusination of eIF5A ([1]; standard concentrations of DMSO (less than 10%)): not affected

Compound: O=C(O)CN(CCN(CC(=O)O)CC(=O)O)CC(=O)O [EDTA]
maximal inhibition ([2]; at 100 μM EDTA): 80% | Relative deoxyhypusination of eIF5A, Mean (quantification from Figure 3F, 3G) [3]: 97,63 a.u
